Assay results from ChEMBL document CHEMBL5096208, “Installation of Pargyline, a LSD1 Inhibitor, in the HDAC Inhibitory Template Culminated in the Identification of a Tractable Antiprostate Cancer Agent” (J Med Chem, 2021).
Activity calls are given as the source filed them. The calls are words filed in the database; no cut-off is given here.

Columns and labels:
Histone deacetylase 1 = Histone deacetylase 1 (Homo sapiens, UniProt Q13547); experiment: Inhibition of human HDAC1 (379 to 382 residues) using RHKKAc as flurogenic substrate
Histone deacetylase 1, sequence (Q13547 whole entry, the tested form may be a part): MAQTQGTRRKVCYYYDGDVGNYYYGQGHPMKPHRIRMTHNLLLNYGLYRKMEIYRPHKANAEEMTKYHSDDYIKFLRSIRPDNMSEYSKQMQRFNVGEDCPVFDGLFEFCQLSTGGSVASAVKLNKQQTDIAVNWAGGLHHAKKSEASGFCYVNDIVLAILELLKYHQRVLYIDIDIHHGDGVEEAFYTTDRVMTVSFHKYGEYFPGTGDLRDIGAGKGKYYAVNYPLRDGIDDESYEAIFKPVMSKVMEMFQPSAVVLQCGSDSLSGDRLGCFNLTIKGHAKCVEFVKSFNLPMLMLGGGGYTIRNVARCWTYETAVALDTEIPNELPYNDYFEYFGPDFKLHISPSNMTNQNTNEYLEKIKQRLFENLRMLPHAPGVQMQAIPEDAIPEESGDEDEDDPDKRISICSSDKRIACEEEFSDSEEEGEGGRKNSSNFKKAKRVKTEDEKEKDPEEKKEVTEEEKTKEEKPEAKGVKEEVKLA

HUVEC = experiment: Cytotoxicity against HUVEC cells assessed as reduction in cell viability at upto 10 uM incubated for 48 hrs by MTT assay; assay type: toxicity, cell-based; settings: human
Histone deacetylase 5 = Histone deacetylase 5 (Homo sapiens, UniProt Q9UQL6); experiment: Inhibition of human HDAC5 using Boc-Lys(trifluoroacetyl)-AMC as flurogenic substrate
Histone deacetylase 5, sequence (Q9UQL6 whole entry): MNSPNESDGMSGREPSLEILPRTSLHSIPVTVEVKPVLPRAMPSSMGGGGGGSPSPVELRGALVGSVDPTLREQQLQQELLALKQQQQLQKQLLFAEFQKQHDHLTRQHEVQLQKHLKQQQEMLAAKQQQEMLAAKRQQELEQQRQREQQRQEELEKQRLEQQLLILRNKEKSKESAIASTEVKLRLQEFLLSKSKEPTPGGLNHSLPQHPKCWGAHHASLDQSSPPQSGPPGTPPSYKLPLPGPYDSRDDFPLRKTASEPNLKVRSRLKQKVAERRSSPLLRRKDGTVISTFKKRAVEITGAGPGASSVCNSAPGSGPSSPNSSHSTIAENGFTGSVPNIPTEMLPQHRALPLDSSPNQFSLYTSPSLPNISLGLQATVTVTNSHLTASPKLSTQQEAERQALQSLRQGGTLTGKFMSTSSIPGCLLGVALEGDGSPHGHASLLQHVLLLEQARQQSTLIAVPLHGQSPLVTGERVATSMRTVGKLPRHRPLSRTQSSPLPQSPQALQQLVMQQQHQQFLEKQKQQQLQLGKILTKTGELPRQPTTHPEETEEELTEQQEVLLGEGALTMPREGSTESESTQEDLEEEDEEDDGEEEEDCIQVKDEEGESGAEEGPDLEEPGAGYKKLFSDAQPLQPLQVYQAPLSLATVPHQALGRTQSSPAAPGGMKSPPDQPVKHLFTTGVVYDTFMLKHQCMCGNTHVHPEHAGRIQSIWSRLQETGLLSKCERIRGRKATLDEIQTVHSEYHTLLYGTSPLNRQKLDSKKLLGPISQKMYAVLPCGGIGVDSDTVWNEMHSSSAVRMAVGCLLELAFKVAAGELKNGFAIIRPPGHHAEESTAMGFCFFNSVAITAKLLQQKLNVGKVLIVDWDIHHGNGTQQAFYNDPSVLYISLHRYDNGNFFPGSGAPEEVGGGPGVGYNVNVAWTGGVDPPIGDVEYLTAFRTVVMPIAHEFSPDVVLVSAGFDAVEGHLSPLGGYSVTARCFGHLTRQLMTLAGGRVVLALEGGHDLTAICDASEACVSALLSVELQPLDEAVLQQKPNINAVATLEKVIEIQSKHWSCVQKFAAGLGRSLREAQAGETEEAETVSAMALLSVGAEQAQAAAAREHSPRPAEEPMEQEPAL

[1] = molecular target: T1, Polyamine deacetylase HDAC10 (Homo sapiens, UniProt Q969S8); experiment: Inhibition of human HDAC10 using Ac-Spermidine-AMC as flurogenic substrate
T1 sequence (Q969S8 whole entry): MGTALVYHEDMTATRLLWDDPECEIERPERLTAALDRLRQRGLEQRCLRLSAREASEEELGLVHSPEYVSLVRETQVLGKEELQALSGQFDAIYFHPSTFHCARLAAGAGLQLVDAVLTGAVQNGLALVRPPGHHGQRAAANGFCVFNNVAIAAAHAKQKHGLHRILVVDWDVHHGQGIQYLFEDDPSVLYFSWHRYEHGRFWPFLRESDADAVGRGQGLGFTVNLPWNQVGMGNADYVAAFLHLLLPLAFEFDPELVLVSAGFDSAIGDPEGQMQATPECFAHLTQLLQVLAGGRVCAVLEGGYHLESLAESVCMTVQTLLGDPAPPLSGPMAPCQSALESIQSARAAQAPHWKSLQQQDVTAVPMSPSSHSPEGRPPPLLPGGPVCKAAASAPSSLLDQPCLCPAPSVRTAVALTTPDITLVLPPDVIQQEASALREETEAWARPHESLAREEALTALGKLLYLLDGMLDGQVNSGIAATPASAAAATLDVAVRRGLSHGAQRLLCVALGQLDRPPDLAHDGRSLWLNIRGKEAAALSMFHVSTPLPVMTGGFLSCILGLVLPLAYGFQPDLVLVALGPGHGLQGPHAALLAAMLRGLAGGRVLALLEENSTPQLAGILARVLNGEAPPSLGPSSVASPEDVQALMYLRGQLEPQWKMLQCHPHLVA

Homo sapiens [2] = organism: Homo sapiens; experiment: Selectivity ratio of IC50 for human HDAC2 to IC50 for human HDAC6
Homo sapiens [3] = organism: Homo sapiens; experiment: Selectivity ratio of IC50 for human HDAC8 to IC50 for human HDAC6
Homo sapiens [4] = organism: Homo sapiens; experiment: Selectivity ratio of IC50 for human HDAC9 to IC50 for human HDAC6
Homo sapiens [5] = organism: Homo sapiens; experiment: Selectivity ratio of IC50 for human HDAC10 to IC50 for human HDAC6
[6] = molecular target: Lysine-specific histone demethylase 1A (Homo sapiens) (UniProt O60341); experiment: Inhibition of LSD1 (unknown origin) using […] as substrate at 1 uM incubated for 48 hrs followed by substrate addition and measured after 2 hrs by microplate reader analysis; settings: time 50.0 hrs
DU-145 [7] = experiment: Upregulation of acetyl-tubulin in human DU-145 cells at 0.625 to 5 uM by Western blot analysis; assay type: functional, cell-based; settings: dose 0.625-5 µM
PC-3 [8] = experiment: Induction of H3K4ME2 accumulation in human PC-3 cells at 0.5 to 10 uM incubated for 48 hrs by Western blot analysis; assay type: functional, cell-based; settings: dose 0.5-10 µM
PC-3 [9] = experiment: Induction of cell death in LSD1 knockdown human PC-3 cells assessed as activation of procaspase-9 at 1.25 to 10 uM by Western blot analysis; assay type: functional, cell-based; settings: dose 1.25-10 µM
[10] = Half life in Sprague-Dawley rat at 2 mg/kg, iv administered as single dose through tail vein measured upto 24 hrs post dose by UPLC-MS/MS analysis; assay type: ADME, organism-based; settings: in vivo
[11] = Volume of distribution at steady state in Sprague-Dawley rat at 2 mg/kg, iv administered as single dose through tail vein measured upto 24 hrs post dose by UPLC-MS/MS analysis; assay type: ADME, organism-based; settings: in vivo, read-out: Vdss
[12] = Tmax in Sprague-Dawley rat at 25 mg/kg, po administered once via gavage measured upto 24 hrs post dose by UPLC-MS/MS analysis; assay type: ADME, organism-based; settings: in vivo
[13] = AUC (0 to 24 hrs) in Sprague-Dawley rat at 25 mg/kg, po administered once via gavage measured upto 24 hrs post dose by UPLC-MS/MS analysis; assay type: ADME, organism-based; parameters: dose 25 mg/kg, time < 24 hrs, route po; settings: in vivo
[14] = AUC (0 to infinity) in Sprague-Dawley rat at 25 mg/kg, po administered once via gavage measured upto 24 hrs post dose by UPLC-MS/MS analysis; assay type: ADME, organism-based; parameters: time < 24 hrs, dose 25 mg/kg, route po; settings: in vivo
[15] = AUC (0 to 24 hrs) in Sprague-Dawley rat at 25 mg/kg, po formulated using SMEDDS administered once via gavage measured upto 24 hrs post dose by UPLC-MS/MS analysis; assay type: ADME, organism-based; parameters: dose 25 mg/kg, time < 24 hrs, route po; settings: in vivo
[16] = Metabolic stability in Sprague-Dawley rat hepatocyte assessed as parent compound remaining at 10 uM incubated for 30 mins by LC-MS/MS analysis; assay type: ADME, cell-based; settings: hepatocytes, read-out: Stability
[17] = Metabolic stability in Sprague-Dawley rat hepatocyte assessed as parent compound remaining at 10 uM incubated for 60 mins by LC-MS/MS analysis; assay type: ADME, cell-based; settings: hepatocytes, read-out: Stability
[18] = Metabolic stability in Sprague-Dawley rat hepatocyte assessed as parent compound remaining at 10 uM incubated for 120 mins by LC-MS/MS analysis; assay type: ADME, cell-based; settings: hepatocytes, read-out: Stability
[19] = Metabolic stability in Beagle dog hepatocyte assessed as parent compound remaining at 10 uM by LC-MS/MS analysis; assay type: ADME, cell-based, Canis lupus familiaris; settings: hepatocytes, read-out: Stability
[20] = Metabolic stability in Beagle dog hepatocyte assessed as parent compound remaining at 10 uM incubated for 120 mins by LC-MS/MS analysis; assay type: ADME, cell-based, Canis lupus familiaris; settings: hepatocytes, read-out: Stability
[21] = Metabolic stability in Beagle dog hepatocyte assessed as parent compound remaining at 10 uM incubated for 240 mins by LC-MS/MS analysis; assay type: ADME, cell-based, Canis lupus familiaris; settings: hepatocytes, read-out: Stability
[22] = Metabolic stability in human hepatocyte assessed as parent compound remaining at 10 uM by LC-MS/MS analysis; assay type: ADME, cell-based; settings: hepatocytes, read-out: Stability
[23] = Metabolic stability in human hepatocyte assessed as parent compound remaining at 10 uM incubated for 30 mins by LC-MS/MS analysis; assay type: ADME, cell-based; settings: hepatocytes, read-out: Stability
[24] = Metabolic stability in human hepatocyte assessed as parent compound remaining at 10 uM incubated for 240 mins by LC-MS/MS analysis; assay type: ADME, cell-based; settings: hepatocytes, read-out: Stability
[25] = Metabolic stability in human hepatocyte assessed as half life at 10 uM by LC-MS/MS analysis; assay type: ADME, cell-based; settings: hepatocytes
PC-3 [26] = experiment: Antitumor activity against human PC-3 cells xenografted in athymic nude mouse assessed as tumor growth inhibition at 100 mg/kg, po qd measured upto 25 days by caliper method relative to control; assay type: functional; settings: PC-3, 600 h, time <= 25 day, read-out: TGI
DU-145 [27] = experiment: Antitumor activity against human DU-145 cells xenografted in athymic nude mouse assessed as tumor growth inhibition at 100 mg/kg, po administered twice daily and measured upto 60 days by caliper method relative to control; assay type: functional; settings: DU-145, 1440 h, time <= 60 day, read-out: TGI
DU-145 [28] = experiment: Antitumor activity against human DU-145 cells xenografted in athymic nude mouse assessed as tumor growth inhibition at 200 mg/kg, po administered twice daily and measured upto 60 days by caliper method relative to control; assay type: functional; settings: DU-145, 1440 h, time <= 60 day, read-out: TGI

IC50 (Histone deacetylase 1): 673 nM | IC50 (Histone deacetylase 5): 13400 nM | IC50 [1]: 374 nM | Ratio IC50 (Homo sapiens [2]): 77 | Ratio IC50 (Homo sapiens [3]): 10.5 | Ratio IC50 (Homo sapiens [4]): > 500 | Ratio IC50 (Homo sapiens [5]): 18.7 | inhibition [6]: Active | half-life [10]: 8.1 h | Vd [11]: 247 L/kg | Tmax [12]: 0.5 h | AUC(0-t) at 24 h [13]: 108 ng·h/mL | AUC(0-inf) [14]: 113 ng·h/mL | AUC(0-t) at 24 h [15]: 587 ng·h/mL | remaining at 0.5 h, 10 µM [16]: 72.2% | remaining at 1 h, 10 µM [17]: 52.5% | remaining at 2 h, 10 µM [18]: 35.9% | remaining at 10 µM [19]: 100% | remaining at 2 h, 10 µM [20]: 66.7% | remaining at 4 h, 10 µM [21]: 46.6% | remaining at 10 µM [22]: 100% | remaining at 0.5 h, 10 µM [23]: 103% | remaining at 4 h, 10 µM [24]: 83.3% | half-life at 10 µM [25]: 13.3 h
SMILES: C#CCN(C)Cc1cccc(NC(=O)CCCCCCC(=O)NO)c1
Activity (HUVEC): Non-Toxic | Activity (DU-145 [7]): Active | Activity (PC-3 [8]): Active | Activity (PC-3 [9]): Active | inhibition in vivo at 100 mg/kg (PC-3 [26]): 53.1% | inhibition in vivo at 100 mg/kg (DU-145 [27]): 73.6% | inhibition in vivo at 200 mg/kg (DU-145 [28]): 80.8%
